According to ChEMBL document CHEMBL1144137, “Limonoids from Swietenia macrophylla and S. aubrevilleana” (1999):

Test system: Spodoptera frugiperda
Test: Antifeedant activity against final instar larvae of Spodoptera frugiperda assessed as antifeedant index at 1000 ppm
Type: functional

Compound `C/C=C(\C)C(=O)O[C@@H]1[C@H]2C(=O)[C@](C)([C@H]3CC[C@]4(C)[C@@H](CC(=O)O[C@H]4c4ccco4)[C@]34O[C@H]24)[C@@H]([C@@H](OC(C)=O)C(=O)OC)C1(C)C` [swietemahonin F] has an Activity of 70.2%.
